The text below walks through data of PubChem BioAssay (NCI).

Molecules are shown by their SMILES.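 Assay format: 96-well plates, 48-hour exposure. GI50 is the concentration that inhibits growth by half. TGI denotes the concentration required for complete inhibition of growth.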

Some test systems named below: MALME-3M melanoma; NCI-H522 lung; SK-MEL-2 melanoma; UO-31 renal; SF-268 CNS; UACC-257 melanoma; SF-295 CNS; RXF 393 renal; HS 578T breast; NCI-H23 lung.
What all share (test): NCI-60 cell line screen, 48 h

As for `C=C1C(=O)O[C@H]2[C@H]1CC/C(COC(=O)NCc1ccccc1OC)=C\CC[C@@]1(C)O[C@@H]21`, the GI50 in the test with MALME-3M melanoma is 1.89 µM; with NCI-H522 lung it was 0.351 µM; with SK-MEL-2 melanoma it was 1.71 µM; in the test on UO-31 renal it was 1.68 µM; in the test with SF-268 CNS it was 2.2 µM; in the test on UACC-257 melanoma it was 1.48 µM. Also, the GI50 in the test with SF-295 CNS was 5.02 µM; in the test with RXF 393 renal, 1.04 µM; in the test on HS 578T breast, 3.4 µM; in the test on NCI-H23 lung, 1.74 µM. Moreover, the TGI in the test on MALME-3M melanoma is 3.98 µM; in the test with NCI-H522 lung, 1.92 µM; in the test on SK-MEL-2 melanoma it was 3.89 µM; with UO-31 renal it was 3.18 µM; with SF-268 CNS, 6.74 µM; with UACC-257 melanoma, 3.51 µM. Besides, the TGI with SF-295 CNS is 18.8 µM; in the test on RXF 393 renal, 2.57 µM; in the test with HS 578T breast, 19 µM; with NCI-H23 lung, 4.11 µM.
With `COc1c(CCC[P+](c2ccccc2)(c2ccccc2)c2ccccc2)cc2c(c1OC)OCO2`, the GI50 in the test on MALME-3M melanoma is 0.599 µM; with NCI-H522 lung, 1.75 µM; in the test on SK-MEL-2 melanoma, 3.03 µM; in the test on UO-31 renal, 11.9 µM; in the test with SF-268 CNS it was 2.04 µM; in the test on UACC-257 melanoma it was 0.312 µM. For the same molecule, the GI50 with SF-295 CNS is 2.62 µM; with RXF 393 renal, 2.05 µM; with HS 578T breast, 1.72 µM; with NCI-H23 lung, 2.19 µM. The TGI in the test on MALME-3M melanoma amounted to 10.2 µM; in the test with NCI-H522 lung it was 10.8 µM; in the test with SK-MEL-2 melanoma, 14.1 µM; in the test on UO-31 renal, 47.2 µM; in the test on SF-268 CNS, 13.1 µM; with UACC-257 melanoma it was 4.38 µM. Also, the TGI was found to be 8.38 µM with SF-295 CNS, 11.6 µM in the test on RXF 393 renal, 13.4 µM in the test on HS 578T breast and 10.3 µM with NCI-H23 lung.
As to `Cc1ccc(/C=C2\CN(C(=O)OC(C)(C)C)C/C(=C\c3ccc(C)cc3)C2=O)cc1`, the TGI in the test on MALME-3M melanoma, in the test on NCI-H522 lung, with SK-MEL-2 melanoma, with UO-31 renal, in the test with SF-268 CNS and with UACC-257 melanoma was above 100 µM in each case. Also, the TGI with SF-295 CNS was above 100 µM; with RXF 393 renal, 4.36 µM; with HS 578T breast it was 3.45 µM; in the test on NCI-H23 lung, above 100 µM. For the same molecule, the GI50 in the test on NCI-H522 lung is 0.159 µM; in the test on UO-31 renal, 1.16 µM; in the test on SF-268 CNS it was 0.34 µM; in the test on SF-295 CNS, 0.0685 µM; with RXF 393 renal it was 0.0625 µM; with HS 578T breast it was 0.0562 µM. Besides, in the test with NCI-H23 lung, the GI50 is 0.516 µM.
`CC(C)(C)C#CC1=C(Br)C(=O)OC1`: the GI50 in the test with MALME-3M melanoma is 2.08 µM; in the test with NCI-H522 lung, 7.7 µM; with SK-MEL-2 melanoma, 12.6 µM; with UO-31 renal, 0.9 µM; with SF-268 CNS, 12.7 µM; in the test on UACC-257 melanoma it was 0.886 µM. The GI50 with SF-295 CNS is 6.9 µM; in the test on RXF 393 renal it was 2.44 µM; in the test on HS 578T breast, above 26.9 µM; with NCI-H23 lung, 2.16 µM. For the same molecule, the TGI is 4.91 µM with MALME-3M melanoma; 22.5 µM with NCI-H522 lung; 31.7 µM with SK-MEL-2 melanoma; 3.22 µM in the test with UO-31 renal; 33.3 µM with SF-268 CNS; 4.39 µM in the test with UACC-257 melanoma. The TGI is 18.2 µM with SF-295 CNS, 6.8 µM in the test on RXF 393 renal, above 78.2 µM with HS 578T breast and 19 µM in the test with NCI-H23 lung.
Regarding `O=C(c1ccc(F)cc1)c1cccc(C(=O)c2ccc(F)cc2)n1`, the TGI was above 100 µM in the test on MALME-3M melanoma; 71.5 µM with NCI-H522 lung; 42.9 µM with SK-MEL-2 melanoma; 66.6 µM in the test with UO-31 renal; 67.8 µM in the test with SF-268 CNS; above 56.2 µM in the test on UACC-257 melanoma. Besides, the TGI is 39.3 µM in the test with SF-295 CNS, 33.4 µM in the test on RXF 393 renal, above 94.8 µM with HS 578T breast and 55.7 µM in the test on NCI-H23 lung.
Take `Cc1ccc(S(=O)(=O)N2CCSCCSCCSCCSCC2)cc1`: the TGI is above 100 µM with MALME-3M melanoma; above 69.8 µM with NCI-H522 lung; above 53.6 µM in the test with SK-MEL-2 melanoma; above 81.3 µM in the test on UO-31 renal; above 75.8 µM in the test with SF-268 CNS; above 100 µM in the test with UACC-257 melanoma. Also, the TGI in the test with SF-295 CNS was 39.3 µM; in the test on RXF 393 renal it was above 45.9 µM; with HS 578T breast, above 53.1 µM; with NCI-H23 lung it was above 92.6 µM.
Take `COC(=O)[C@]12CC[C@@H](C)[C@H](C)[C@@H]1C1=CC[C@@H]3[C@@]4(C)C[C@@H](OC(C)=O)[C@H](O)[C@@](C)(COC(C)=O)[C@@H]4[C@H](O)C[C@@]3(C)[C@]1(C)CC2`: the GI50 was 2.36 µM in the test on MALME-3M melanoma; 1.94 µM in the test with NCI-H522 lung; 2.84 µM with SK-MEL-2 melanoma; 2.01 µM in the test on UO-31 renal; 3.11 µM in the test with SF-268 CNS; 2.06 µM in the test on UACC-257 melanoma. The GI50 is 1.82 µM with SF-295 CNS, 2.13 µM with RXF 393 renal, 2.95 µM in the test on HS 578T breast and 2.73 µM with NCI-H23 lung. For the same molecule, the TGI with MALME-3M melanoma was 6.25 µM; in the test with NCI-H522 lung, 4.33 µM; in the test with SK-MEL-2 melanoma it was 7.39 µM; in the test on UO-31 renal, 7.2 µM; with SF-268 CNS, 13.6 µM; in the test with UACC-257 melanoma, 5.92 µM. Also, the TGI came to 4.07 µM with SF-295 CNS, 5.05 µM in the test with RXF 393 renal, 12.6 µM in the test on HS 578T breast and 8.44 µM in the test on NCI-H23 lung.
In the case of `CC/C=C\C=C/C(=O)N/C=C/CC1Cc2cccc(O)c2C(=O)O1` (configuration not stated), the GI50 in the test with MALME-3M melanoma is 41.5 µM; in the test with NCI-H522 lung it was 19.5 µM; in the test with SK-MEL-2 melanoma, 22.9 µM; in the test on UO-31 renal, 35.4 µM; in the test with SF-268 CNS, 15.1 µM; with UACC-257 melanoma it was 25.2 µM. The GI50 in the test on SF-295 CNS is 33.1 µM; in the test with RXF 393 renal, 16.1 µM; in the test with HS 578T breast it was 28.9 µM; in the test on NCI-H23 lung, 58.1 µM. Moreover, the TGI in the test with MALME-3M melanoma is above 100 µM; with NCI-H522 lung it was 55.2 µM; with SK-MEL-2 melanoma, above 100 µM; with UO-31 renal, above 100 µM; with SF-268 CNS, 53.3 µM; in the test with UACC-257 melanoma, above 100 µM. For the same molecule, the TGI with SF-295 CNS was above 100 µM; in the test with RXF 393 renal, 35.8 µM; in the test on HS 578T breast, above 100 µM; with NCI-H23 lung, above 100 µM.
In the case of `CCCN=Cc1cc(Cc2ccc(O)c(C=NCCC)c2)ccc1O`, the TGI in the test with MALME-3M melanoma stood at 50.5 µM; with NCI-H522 lung, 45.1 µM; in the test on SK-MEL-2 melanoma, 9.59 µM; with UO-31 renal, 36.3 µM; in the test with SF-268 CNS it was 46.4 µM; in the test with UACC-257 melanoma, 60.8 µM. The TGI in the test with SF-295 CNS was 52.5 µM; in the test with RXF 393 renal, 37.7 µM; with HS 578T breast, 92.2 µM; in the test on NCI-H23 lung, 26.2 µM.
